Patent US11142554B2 (MASSACHUSETTS INSTITUTE OF TECHNOLOGY, priority 2015, dated 2021)
Residues, ends and D or L forms follow the SMILES beside them.

Tests used:
[1] = molecular target: KSBcl-2; test: receptor | KSBcl-2
[2] = molecular target: T1, Bcl-2 (Homo sapiens, UniProt P10415); test: receptor | Bcl-2
Target sequence in this assay (P10415 whole entry, looked up): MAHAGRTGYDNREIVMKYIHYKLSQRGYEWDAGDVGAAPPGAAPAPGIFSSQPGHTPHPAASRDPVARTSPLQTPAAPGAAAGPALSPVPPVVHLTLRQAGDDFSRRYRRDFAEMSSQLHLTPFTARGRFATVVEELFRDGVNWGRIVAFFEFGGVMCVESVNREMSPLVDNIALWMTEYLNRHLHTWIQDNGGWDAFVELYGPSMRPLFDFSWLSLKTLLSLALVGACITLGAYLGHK

[3] = molecular target: Bfl-1 (Homo sapiens, UniProt Q16548); test: receptor | Bfl-1
[4] = molecular target: T2, Bcl-xL (Homo sapiens, UniProt Q07817); test: receptor | Bcl-xL
Target sequence in this assay (Q07817 whole entry, looked up): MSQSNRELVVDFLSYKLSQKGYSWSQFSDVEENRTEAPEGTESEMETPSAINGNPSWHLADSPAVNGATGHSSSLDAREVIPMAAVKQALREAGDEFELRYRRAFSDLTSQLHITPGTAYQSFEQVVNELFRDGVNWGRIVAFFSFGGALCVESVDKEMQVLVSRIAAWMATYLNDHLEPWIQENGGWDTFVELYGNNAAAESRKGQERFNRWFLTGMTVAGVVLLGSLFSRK

[5] = molecular target: Bcl-w (Homo sapiens, UniProt Q92843); test: receptor | Bcl-w
[6] = molecular target: T3, Bcl-w (Homo sapiens, UniProt Q92843); test: Fluorescence anisotropy direct binding of N-terminal fluorescein peptides
T3 sequence (Q92843 1-193): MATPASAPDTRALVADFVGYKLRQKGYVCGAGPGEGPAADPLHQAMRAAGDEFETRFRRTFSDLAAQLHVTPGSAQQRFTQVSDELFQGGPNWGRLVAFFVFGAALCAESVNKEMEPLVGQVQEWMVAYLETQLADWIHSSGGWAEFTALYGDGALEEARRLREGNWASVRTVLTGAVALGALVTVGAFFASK

[7] = molecular target: T1, Bcl-2; test: as above
Target sequence in this assay (P10415 whole entry): as the sequence (P10415 whole entry, looked up) above

[8] = molecular target: T4, Bfl-1 (Homo sapiens, UniProt Q16548); test: as above
T4 sequence (Q16548 1-175): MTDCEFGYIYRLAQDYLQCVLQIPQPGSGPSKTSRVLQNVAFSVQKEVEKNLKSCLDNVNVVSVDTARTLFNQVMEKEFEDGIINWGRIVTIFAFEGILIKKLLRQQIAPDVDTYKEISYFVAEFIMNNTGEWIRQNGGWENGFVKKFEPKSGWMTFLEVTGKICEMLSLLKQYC

[9] = test system: Pfeiffer cells; conditions: Pfeiffer
Method: (§1) A whole-cell BH3 profiling assay was used to test the specificity of our Mcl-1-binding peptides in several cell lines with differing dependencies on Bcl-2, Mcl-1, Bcl-xL, or Bfl-1. In this assay, permeabilized cells were treated with increasing doses of BH3 peptides, and mitochondrial outer membrane permeabilization (MOMP) was monitored using the dye JC-1 (see below). Mcl-1/Myc 2640 is an engineered murine leukemia cell line overexpressing murine Mcl-1 and Myc, and Bcl-2/Myc 2924 is a similarly engineered cell line overexpressing human Bcl-2.
(§2) Assay plates were produced by serial dilution of each peptide from 200 μM to 0.2 nM using 10-fold dilutions in DTEB (Derived from Trehalose Experimental Buffer: 135 mM trehalose, 50 mM KCl, 20 μM EDTA, 20 μM EGTA, 0.1% BSA, 5 mM succinate, 10 mM HEPES-KOH pH 7.5) containing 0.005% w/v digitonin, 10 mM 2-mercaptoethanol, 2 μM JC-1, and 20 mg mL-1 oligomycin. Triplicate wells for each peptide were made for each cell line by adding 15 μL of the peptide dilutions to each well of a black, untreated 384-well plate. Control wells containing no peptide or 20 μM FCCP (carbonyl cyanide-4(trifluoromethoxy) phenylhydrazone, a chemical uncoupler of oxidative phosphorylation) were included for zero and complete depolarization, respectively. Multiple plates were produced from the same stock and frozen at −80 ° C. for later use. Frozen plates were brought to RT prior to use, cells were suspended in DTEB at a density of 1.34×10^6 cells/mL, and 15 μL of cell suspension was added to each well of the dilution series to yield wells ranging from 0.1 nM to 100 μM peptide and 20000 cells/well. Fluorescence of JC-1 aggregates was measured at 590 nm with 545 nm excitation on a Tecan Safire2 at 5 min intervals for 3 h. The area under each signal-vs-time curve was calculated and normalized to the untreated and FCCP values to produce the percent depolarization. Curves were plotted as the log [peptide] vs percent depolarization, with sigmoidal dose—response curves fitted using Graphpad PRISM 6.

[10] = molecular target: T2, Bcl-xL; test: Fluorescence anisotropy direct binding of N-terminal fluorescein peptides
Target sequence in this assay (Q07817 whole entry): as the sequence (Q07817 whole entry, looked up) above

[11] = test system: MDA-MB-231 cells; conditions: MDA-MB-231
Method: as §1, §2

[12] = test system: Bcl-2/Myc 2924 cells; conditions: Bcl-2/Myc 2924
Method: as §1, §2

[13] = test system: Mcl-1/Myc 2640 cells; conditions: Mcl-1/Myc 2640
Method: as §1, §2

Molecule | Kd [1] [nM] | Kd [2] [nM] | Kd [3] [nM] | Kd [4] [nM] | Kd [5] [nM] | other results
CC[C@H](C)[C@H](NC(=O)[C@H](CCC(=O)O)NC(=O)[C@H](CC(=O)O)NC(=O)CNC(=O)[C@H](CC(C)C)NC(=O)[C@H](CCCNC(=N)N)NC(=O)[C@H](CCCNC(=N)N)NC(=O)[C@H](CC(C)C)NC(=O)CNC(=O)[C@H](CCC(N)=O)NC(=O)CNC(=O)[C@H](CCSC)NC(=O)[C@H](Cc1c[nH]c2ccccc12)NC(=O)[C@@H](NC(=O)[C@H](CCC(=O)O)NC(=O)[C@@H]1CCCN1C(=O)[C@@H](N)CCCNC(=N)N)[C@@H](C)CC)C(=O)N[C@@H](CC(N)=O)C(=O)N[C@@H](C)C(=O)N[C@@H](Cc1ccc(O)cc1)C(=O)N[C@@H](Cc1ccc(O)cc1)C(=O)N[C@@H](C)C(=O)N[C@@H](CCCNC(=N)N)C(N)=O [A12] (H-RPEIWMGQGLRRLGDEINAYYAR-NH2; N-terminus and C-terminus assumed) | 4 ± 2.6 | – | – | – | – | –
CC[C@H](C)[C@H](NC(=O)[C@H](CCC(=O)O)NC(=O)[C@H](CC(=O)O)NC(=O)CNC(=O)[C@H](CC(C)C)NC(=O)[C@H](CCCNC(=N)N)NC(=O)[C@H](CCC(N)=O)NC(=O)[C@H](CC(C)C)NC(=O)[C@H](CO)NC(=O)[C@H](CCC(N)=O)NC(=O)CNC(=O)[C@H](CC(C)C)NC(=O)[C@H](Cc1c[nH]c2ccccc12)NC(=O)[C@@H](NC(=O)[C@H](CCC(=O)O)NC(=O)[C@@H]1CCCN1C(=O)[C@@H](N)CCCNC(=N)N)[C@@H](C)CC)C(=O)N[C@@H](CC(N)=O)C(=O)N[C@@H](C)C(=O)N[C@@H](Cc1ccc(O)cc1)C(=O)N[C@@H](Cc1ccc(O)cc1)C(=O)N[C@@H](C)C(=O)N[C@@H](CCCNC(=N)N)C(N)=O [B3] (H-RPEIWLGQSLQRLGDEINAYYAR-NH2; N-terminus and C-terminus assumed) | 1.43 ± 1.39 | – | – | – | – | –
CC[C@H](C)[C@H](NC(=O)[C@H](CCCNC(=N)N)NC(=O)[C@H](CCCNC(=N)N)NC(=O)[C@H](CC(C)C)NC(=O)[C@H](CCC(=O)O)NC(=O)[C@H](CCC(N)=O)NC(=O)[C@@H](NC(=O)[C@@H](NC(=O)[C@H](Cc1c[nH]c2ccccc12)NC(=O)[C@@H](NC(=O)[C@H](CCC(=O)O)NC(=O)[C@@H]1CCCN1C(=O)[C@@H](N)CCCNC(=N)N)[C@@H](C)CC)[C@@H](C)CC)[C@@H](C)O)C(=O)NCC(=O)N[C@@H](CC(=O)O)C(=O)N[C@@H](CCC(=O)O)C(=O)N[C@@H](Cc1ccccc1)C(=O)N[C@@H](CC(N)=O)C(=O)N[C@@H](C)C(=O)N[C@@H](Cc1ccc(O)cc1)C(=O)N[C@@H](Cc1ccc(O)cc1)C(=O)N[C@@H](C)C(=O)N[C@@H](CCCNC(=N)N)C(N)=O [Bim_A2eT] | – | 43 ± 12 | 31 ± 6.8 | 17 ± 4.8 | 39 ± 9.4 | –
CC[C@H](C)[C@H](NC(=O)[C@H](CCCNC(=N)N)NC(=O)[C@H](CCCNC(=N)N)NC(=O)[C@H](CC(C)C)NC(=O)[C@H](CCC(=O)O)NC(=O)[C@H](CCC(N)=O)NC(=O)[C@@H](NC(=O)[C@H](CCSC)NC(=O)[C@H](Cc1c[nH]c2ccccc12)NC(=O)[C@@H](NC(=O)[C@H](CCC(=O)O)NC(=O)[C@@H]1CCCN1C(=O)[C@@H](N)CCCNC(=N)N)[C@@H](C)CC)[C@@H](C)O)C(=O)NCC(=O)N[C@@H](CC(=O)O)C(=O)N[C@@H](CCC(=O)O)C(=O)N[C@@H](Cc1ccccc1)C(=O)N[C@@H](CC(N)=O)C(=O)N[C@@H](C)C(=O)N[C@@H](Cc1ccc(O)cc1)C(=O)N[C@@H](Cc1ccc(O)cc1)C(=O)N[C@@H](C)C(=O)N[C@@H](CCCNC(=N)N)C(N)=O [Bim_A2eT_I2dM] | – | 210 ± 71 | 150 ± 69 | 83 ± 53 | 260 ± 52 | –
CC[C@H](C)[C@H](NC(=O)[C@H](CCC(=O)O)NC(=O)[C@@H]1CCCN1C(=O)[C@@H](N)CCCNC(=N)N)C(=O)N[C@@H](Cc1c[nH]c2ccccc12)C(=O)N[C@H](C(=O)N[C@H](C(=O)N[C@@H](CCC(N)=O)C(=O)N[C@@H](CCC(=O)O)C(=O)N[C@@H](CC(C)C)C(=O)N[C@@H](CCCNC(=N)N)C(=O)N[C@@H](CCCNC(=N)N)C(=O)N[C@@H](CC(C)C)C(=O)NCC(=O)N[C@@H](CC(=O)O)C(=O)N[C@@H](CCC(=O)O)C(=O)N[C@@H](Cc1ccccc1)C(=O)N[C@@H](CC(N)=O)C(=O)N[C@@H](C)C(=O)N[C@@H](Cc1ccc(O)cc1)C(=O)N[C@@H](Cc1ccc(O)cc1)C(=O)N[C@@H](C)C(=O)N[C@@H](CCCNC(=N)N)C(N)=O)[C@@H](C)O)[C@@H](C)CC [Bim_A2eT_I3dL] | – | 37 ± 14 | 120 ± 27 | 7.6 ± 3.8 | 12 ± 2.6 | –
CC[C@H](C)[C@H](NC(=O)[C@H](CCC(=O)O)NC(=O)[C@H](CC(=O)O)NC(=O)CNC(=O)[C@H](CC(C)C)NC(=O)[C@H](CCCNC(=N)N)NC(=O)[C@H](CCC(N)=O)NC(=O)[C@H](CC(C)C)NC(=O)[C@H](Cc1c[nH]cn1)NC(=O)[C@H](CCC(N)=O)NC(=O)[C@@H](NC(=O)[C@H](CC(C)C)NC(=O)[C@H](Cc1c[nH]c2ccccc12)NC(=O)[C@@H](NC(=O)[C@H](CCC(=O)O)NC(=O)[C@@H]1CCCN1C(=O)[C@@H](N)CCCNC(=N)N)[C@@H](C)CC)[C@@H](C)O)C(=O)N[C@@H](CC(N)=O)C(=O)N[C@@H](C)C(=O)N[C@@H](Cc1ccc(O)cc1)C(=O)N[C@@H](Cc1ccc(O)cc1)C(=O)N[C@@H](C)C(=O)N[C@@H](CCCNC(=N)N)C(N)=O [MS3] | – | – | 790 ± 140 | – | 340 ± 69 | –
CC[C@H](C)[C@H](NC(=O)[C@H](CCC(=O)O)NC(=O)[C@H](CC(=O)O)NC(=O)CNC(=O)[C@H](CC(C)C)NC(=O)[C@H](CCCNC(=N)N)NC(=O)[C@H](CCC(N)=O)NC(=O)[C@H](CC(C)C)NC(=O)[C@H](Cc1c[nH]cn1)NC(=O)[C@H](CCC(N)=O)NC(=O)[C@@H](NC(=O)[C@H](CC(C)C)NC(=O)[C@H](Cc1c[nH]c2ccccc12)NC(=O)[C@@H](NC(=O)[C@H](CCC(=O)O)NC(=O)[C@@H]1CCCN1C(=O)[C@H](CCCNC(=N)N)NC(C)=O)[C@@H](C)CC)[C@@H](C)O)C(=O)N[C@@H](CC(N)=O)C(=O)N[C@@H](C)C(=O)N[C@@H](Cc1ccc(O)cc1)C(=O)N[C@@H](Cc1ccc(O)cc1)C(=O)N[C@@H](C)C(=O)N[C@@H](CCCNC(=N)N)C(N)=O [MS3] | – | – | – | – | – | binding affinity to Bcl-w (in words) [6]: several-hundred nanomolar affinity; binding affinity to Bcl-2 (in words) [7]: micromolar affinity; binding affinity to Bfl-1 (in words) [8]: several-hundred nanomolar affinity; depolarization response (in words) [9]: stronger response in Pfeiffer than MS1 or MS2; binding affinity to Bcl-xL (in words) [10]: micromolar affinity
RPEIWITQGLRRIGDEFNAYYAR [Bim_A2eT_E2gG] | – | – | – | – | – | depolarization response (in words) [11]: depolarization response intermediate to that of Bim and MS1; depolarization response (in words) [9]: depolarization response intermediate to that of Bim and MS1; depolarization response (in words) [12]: depolarization response intermediate to that of Bim and MS1; depolarization response (in words) [13]: strong depolarization response
RPEIWLTQSLQRLGDEINAYYAR [MS2] | < 1 | – | – | – | – | –
RPEIWMTQGLRRLGDEINAYYAR [MS1] | 2.9 ± 0.68 | – | – | – | – | –
